Where a name gives a salt, the structure may show the parent alone.
Key:
[1] = Solid-state chemical and physical stability under stress and storage conditions; type: physicochemical; settings: for Chemical and physical stability: 25° C./92% RH open, 40° C./75% RH open, 60° C. tight container, over 1 week
Protocol: Solid form stability of freeform Type A was investigated in process solvents EtOH/H2O and MeOH/H2O. […] Purity change in all the rest conditions (40° C./75% RH/open for 2 weeks, 60° C./sealed for 10 days, RT/92.5% RH/open for 10 days, 25° C./60% RH/open for 8 weeks and UV (290 wμ/cm2) for 3 days) was less than 0.4 area %. […]

[2] = Pharmacokinetic studies in mice; type: in vivo, male CD-1 mice; settings: for AUC(0-t): male, CD-1, mouse, plasma, read-out: AUC0-24h
Protocol: Compound A free form amorphous (115.7 mg) was prepared by lyophilizing a suspension of compound A free form in water with a minimum amount of acetonitrile.
(§1) Pharmacokinetic studies of Compound A were conducted in male CD-1 mice (Vital River, 8 weeks, 3 animals per dosing route) following Institutional Animal Care and Use Committee guidelines. Intravenous administration was formulated as 0.20 mg/mL solution in N,N-dimethylacetamide:30% solutol HS-15(w/v): saline=20:20:60 (V:V:V). Oral administration was formulated as 1.0 mg/mL suspension in 0.500 methyl cellulose. Blood samples were collected over a 24-h period post-dose. Plasma was isolated and processed with the below protocol: To an aliquot of 10 μL plasma was added 200 μL ACN containing 5 ng/mL terfenadine as internal standard. The mixture was vortexed for 1 m and centrifuged at 4000 rpm for 10 min. An aliquot of 50 μL supernatant was diluted with 150 μL acetonitrile/water. The concentration of Compound A was determined by LC-MS-MS. Non-compartmental pharmacokinetic analysis was performed on the concentration-time data.

[3] = Pharmacokinetic studies in rats; type: in vivo, male SD rats; settings: for AUC(0-t): read-out: AUC0-24h
Protocol: as §1, with “male SD rats” for “male CD-1 mice”, “as 1.0” for “as 0.20”, “solutol HS-15(w/v):saline=20:20:60” for “solutol HS-15(w/v): saline=20:20:60”, “in 0.5%” for “in 0.500”, “1 min” for “1 m”

[4] = Dynamic vapor sorption (DVS) hygroscopicity test; type: physicochemical; settings: for Hygroscopicity: DVS at 25° C.
Protocol: Dynamic vapor sorption (DVS) analysis was conducted using SMS DVS Intrinsic using one of below methods:
(§2) Sample was weighted to the microbalance. The relative humidity was set to 0% with N2 flow of 200 sccm. The equilibrium was assumed when the weight change of the sample was <0.001 wt % in 10 min or by a maximum equilibration time of 180 minutes. […] Between two equilibrium steps, dm/dt is 0.002%/min. At each equilibrium step, the equilibrium was assumed when the weight change of the sample was <0.001 wt % in 10 min or by a maximum equilibration time of 180 minutes.
as §2, with “the closes decile of ambient humidity” for “0%”
as §2, with “40%” for “0%”, “60” for “10”, “360” for “180”

[5] = Solid form stability in process solvents; type: physicochemical; settings: MeOH at 50° C.
Protocol: Solid form stability of freeform Type A was investigated in process solvents EtOH/H2O and MeOH/H2O. […] Purity change in all the rest conditions (40° C./75% RH/open for 2 weeks, 60° C./sealed for 10 days, RT/92.5% RH/open for 10 days, 25° C./60% RH/open for 8 weeks and UV (290 wμ/cm2) for 3 days) was less than 0.4 area %.

[6] = PO Dose 10 mpk calculated as free form, 10 mg/kg
[7] = male, SD, rat, plasma, po, 10 mg/kg, PO Dose 10 mpk calculated as free form

With `Cc1cc(-c2c[nH]c3ncc(-c4cc(C)c5c(c4)CCN(C)C5)nc23)ccc1C(=O)N(C)C` [Citrate Type B, 4-[2-(2,8-dimethyl-1,2,3,4-tetrahydroisoquinolin-6-yl)-5H-pyrrolo[2,3-b]pyrazin-7-yl]-N,N,2-trimethylbenzamide] the “Form conversion on storage” value ([1]; ambient and open conditions (about 25° C. and about 80% RH) over 1 week) was “converted to Type A”.

Molecule `Cc1cc(-c2c[nH]c3ncc(-c4cc(C)c5c(c4)CCN(C)C5)nc23)ccc1C(=O)N(C)C` [Compound A citrate type A, 4-[2-(2,8-dimethyl-1,2,3,4-tetrahydroisoquinolin-6-yl)-5H-pyrrolo[2,3-b]pyrazin-7-yl]-N,N,2-trimethylbenzamide] has an AUC0-24h [2, 6] of 2990 ng·h/mL, a Cmax [2, 6] of 640 ng/mL and a F % [2, 6] of 86.9%. It also gave a t1/2 [2, 6] of 7.95 h, a tmax [2, 6] of 1.50 h and an AUC0-24h [3, 6] of 1603 ng·h/mL. The Cmax [3, 6] was 445 ng/mL, the F % [3, 6] was 24.4% and the tmax [3, 6] was 2.67 h. For the same molecule, the Long-term stability ([1]; 3-month experiment) was “excellent long-term stability”, the “Chemical and physical stability” value [1] was “chemically and physically stable” and the “Form change after the DVS test” value [4] was “No form change”. For the same molecule, the Hygroscopicity ([4]; listed as citrate salt type A) was “slightly hygroscopic” and the “Water absorbed (DVS)” value ([4]; from 0% RH to 95% RH at 25° C.) was “about 0.7%”.

In the case of `Cc1cc(-c2c[nH]c3ncc(-c4cc(C)c5c(c4)CCN(C)C5)nc23)ccc1C(=O)N(C)C` [Compound A free form amorphous, 4-[2-(2,8-dimethyl-1,2,3,4-tetrahydroisoquinolin-6-yl)-5H-pyrrolo[2,3-b]pyrazin-7-yl]-N,N,2-trimethylbenzamide], the Cmax [2, 6] is reported as 177 ng/mL, the F % [2, 6] is reported as 55.2% and the t1/2 [2, 6] is reported as 3.63 h. For the same molecule, the tmax [2, 6] was 3.50 h, the AUC(0-t) ([2]; iv, 1 mg/kg, IV Dose 1 mpk calculated as free form) was 344 ng·h/mL and the AUC(0-t) ([2]; po, 10 mg/kg, PO Dose 10 mpk calculated as free form) was 1900 ng·h/mL. It also gave a half-life ([3]; male, SD, rat, plasma, 10 mg/kg, PO Dose 10 mpk calculated as free form) of 4.05 h, an AUC(0-t) ([3]; male, SD, rat, plasma, iv, 1 mg/kg, IV Dose 1 mpk calculated as free form) of 656 ng·h/mL and a bioavailability [3, 7] of 17.2%. The AUC(0-t) [3, 7] was 1120 ng·h/mL, the Cmax ([3]; male, SD, rat, plasma, po, 10 mg/kg, PO Dose 10 mpk calculated as free form, read-out: Cmax) was 235 ng/mL and the tmax ([3]; male, SD, rat, plasma, po, 10 mg/kg, PO Dose 10 mpk calculated as free form, read-out: tmax) was 2 h.

With `Cc1cc(-c2c[nH]c3ncc(-c4cc(C)c5c(c4)CCN(C)C5)nc23)ccc1C(=O)N(C)C` [L-malate salt Type A, 4-[2-(2,8-dimethyl-1,2,3,4-tetrahydroisoquinolin-6-yl)-5H-pyrrolo[2,3-b]pyrazin-7-yl]-N,N,2-trimethylbenzamide] the “Chemical and physical stability” value [1] was “chemically and physically stable”, the “Form change after the DVS test” value [4] was “No form change” and the Hygroscopicity ([4]; listed as L-malate salt Pattern A) was “hygroscopic”. The “Water absorbed (DVS)” value ([4]; from 40% RH to 95% RH at 25° C.) was “about 7.9%”.

In the case of `Cc1cc(-c2c[nH]c3ncc(-c4cc(C)c5c(c4)CCN(C)C5)nc23)ccc1C(=O)N(C)C` [freeform Type A, 4-[2-(2,8-dimethyl-1,2,3,4-tetrahydroisoquinolin-6-yl)-5H-pyrrolo[2,3-b]pyrazin-7-yl]-N,N,2-trimethylbenzamide], the “HPLC area purity change” value ([1]; 40° C./75% RH/open 2 weeks, 60° C./sealed 10 days, RT/92.5% RH/open 10 days, 25° C./60% RH/open 8 weeks, UV 3 days) is reported as “less than 0.4 area %”, the “HPLC area purity decrease” value ([1]; Vis (10000 Lux) for 5 days) is reported as about 1.2 area % and the “Form change (physical stability)” value ([1]; under the laboratory conditions) is reported as “No form change”. For the same molecule, the “Form change in process solvent” value [5] was “No form change”.
